# Source: patent publication US20030119067A1, “PYK2 related products and methods” (Sugen, Inc., priority 1996, published 2003)
# How the values were obtained:
# Format in all cases: cell-based, rat
# PYK2 = experiment: Tyrosine phosphorylation of PYK2 in PC12 cells (immunoprecipitation, anti-phosphotyrosine immunoblot); conditions: PC12 cells, 37° C.
# Src = Src kinase activity in PC12 cells; conditions: PC12 cells stimulated with LPA or bradykinin
# Description: (§1) Sadoshima & Izumo, EMBO J. 15:775-787 (1996); Wan et al., Nature 380:541-544 (1996). The EGF-receptor and erbB2 were also implicated in MAP kinase activation induced by LPA and other agonists of G-protein coupled receptors. Daub et al., Nature 379:557-564 (1996). We have tested whether LPA and bradykinin can activate Src and the EGF receptor in PC12 cells.
# (§2) PC12 cells were left untreated (−) or stimulated with LPA (2.5 mM) or bradykinin (1 mM) for 3 min at 37° C. Src was immunoprecipitated and immunoblotted with antibodies against Src, anti-pY416^src antibodies or antibodies against PYK2.
# EGF receptor = experiment: Activation of EGF receptor in PC12 cells
# Excerpt: as §1
# PYK2/Src complex = experiment: Association of PYK2 with activated Src in PC12 cells (co-immunoprecipitation); conditions: LPA 2.5 mM or bradykinin 1 mM, 3 min, 37° C.
# Excerpt: We examined the possibility of association between the two protein tyrosine kinases PYK2 and Src in response to LPA or bradykinin stimulation. Lysates from stimulated or unstimulated cells were subjected to immunoprecipitation with antibodies against Src followed by immunoblotting with antibodies against PYK2, against Src or anti-pY416src antibodies that specifically recognize activated Src. Liu et al., Oncogene 8:1119-1126 (1993).
# as §2
substance,measurement,setting,value
lysophosphatidic acid [LPA],tyrosine phosphorylation of PYK2,"PYK2; LPA 2.5 mM or bradykinin 1 mM, 3 min",rapid tyrosine phosphorylation of PYK2
same,increase in the phosphorylation state of PYK2 relative to unstimulated cells,"PYK2; LPA 2.5 mM, bradykinin 1 mM 3 min, PMA 1 mM 10 min",4 fold
same,increase in Src kinase activity,Src,approximately three to four
same,activation of EGF receptor,EGF receptor,unable to detect
same,complex formation of PYK2 with activated Src,PYK2/Src complex,forms a complex with activated Src
